{"source": "patent US20080188449A1", "about": "“Treatment of Conditions Caused By Calcium Abnormalities” (priority 2004, published 2008)", "key": {"[1]": {"system": "Pkd1^−/− murine kidney epithelial cells", "experiment": "Growth, p21 and active caspase-3 in Pkd1^−/− cells", "type": "cell-based", "protocol": "(§1) Calcium response to triptolide was, thus, shown to be dependent on polycystin-2. The biological response to calcium flux was next assessed in the murine Pkd1^−/− cell line, by adding 100 nM triptolide to the cultured cells and observing cell growth over time. Within the first 24 hours of culture, a minimal number of detached cells was observed. […] In the absence of triptolide, this cell line underwent a population doubling every 48 hours. […] It is possible that additional signaling pathways are activated by triptolide when Pkd1 is expressed. […] Therefore, Applicants assessed whether the inhibition of proliferation observed was due to p21 re-expression upon triptolide treatment.\n(§2) The Pkd1^−/−(MN24), Pkd2^+/−(3B3) and Pkd2^−/−(2D2) murine cell lines were derived from knockout and transgenic mice as previously reported (Wu, et al., 1998, Cell, 93:177-88; Wu, et al., 2000, Nat. Genet, 24:75-8; Wu, et al., 2002, Hum Mol Genet, 11:1845-54). The PKD2-Rex cell line was made by stable integration of untagged PKD2 under hygromycin selection. Antibodies used included polycystin-2 (Cai, et al. 1999, J Biol Chem, 274:28557-65), cleaved (active) caspase-3 (Cell Signaling Technology) and p21 (BD Biosciences). Triptolide was obtained from Sinobest Inc. (China) and purity was 99% as determined by HPLC. DMSO was used to dissolve triptolide and was then directly added into culture media for all experiments. Triptolide was tritiated by Sib Tech, Inc. (Newington, Conn.) and resuspended in ethanol to a specific activity of 4-6 Ci/mmol. Purity was >95% as confirmed by RP-HPLC on a Hypersil C18 column and by TLC on both C18 and silica gel.\nTotal cell lysates (0.5% Triton X-100, 50 mM Tris pH 7.4, 150 mM NaCl, […]) were prepared for Western blot analysis and samples were run out by SDS-PAGE as per manufacturers' protocols. Brightfield images of cells were taken using a 10× or 40× objective. Confocal microscopy (40×) was used for immunofluorescence imaging of polycystin-2."}, "[2]": {"system": "Pkd2^+/− murine cell line", "experiment": "Viability of Pkd2^+/− cells", "type": "cell-based", "conditions": "100 nM", "protocol": "as §1\nas §2, with “Triptolide was tritiated by Sib Tech, Inc. (Newington, Conn.) and resuspended in ethanol to a specific activity of 4-6 Ci/mmol. Purity was >95% as confirmed by RP-HPLC on a Hypersil C18 column and by TLC on both C18 and silica gel.” left out"}, "[3]": {"system": "pregnant C57B1/6 mice", "experiment": "Toxicity dose finding in pregnant mice", "type": "in vivo", "conditions": "i.p.", "protocol": "Triptolide has been previously studied in rodent models of tumor regression (Tengchaisri, et al., 1998, Cancer Lett 133, 169-175; Yang, et al., 2003, Mol Cancer Ther 2, 65-72), but it had not yet been tested in a system utilizing pregnant females. To first establish a potential therapeutic versus lethal concentration of drug delivery, pregnant C57B1/6 mice were treated with incremental concentrations of triptolide between 0.01-0.15 mg/kg/day i.p. injections. Toxicity was assessed as determined by resorption of all embryos or the preponderance of a large percentage of stillborns. With reference to these criteria, triptolide toxicity was determined to be most prominent at concentrations of 0.1 mg/kg/day or greater. […] Another experimental parameter involved the timing of the start of triptolide injections, since polycystin-2 has been implicated in left-right axis formation in the developing embryo at approximately E7.75 (McGrath, et al., 2003, Cell 114, 61-73; Pennekamp, et al., 2002, Curr Biol 12, 938-943). Applicants therefore chose E10.5 as the start of triptolide injections, in order to allow for a normal polycystin-2 mediated patterning event and still leave sufficient time to act on cyst formation during kidney organogenesis."}, "[4]": {"system": "Pkd1^−/− murine model of polycystic kidney disease", "experiment": "Pkd1^−/− murine model of polycystic kidney disease, treatment during gestation", "type": "in vivo, mice", "protocol": "Following successful Pkd1^+/−/Pkd1^+/− matings, 0.07 mg/kg/day of triptolide or DMSO control was injected i.p. into pregnant mice until they gave birth. All pups were assessed for viability, length, developmental staging, and wet kidney weight. A total of 59 pups from DMSO treated females and 100 pups from triptolide treated females were examined for multiple parameters, such as genotypic distribution, developmental stage at time of birth, and average kidney weights (Table 1). […] Approximately 20% of all Pkd1^−/− mice were born alive from each treatment group. However, severe edematous abnormalities were obvious upon necropsy.\nAs per approved IACUC animal protocol, Pkd1^+/−/Pkd1^+/− mice were mated and pregnant mice were divided into control (DMSO) or experimental (triptolide) groups. A total volume of 100 μl of PBS with no more than 5% DMSO or DMSO/0.07 mg/kg/day triptolide was injected i.p. with a 28 G ½ insulin syringe. Mice were weighed and injected starting at E10.5 until birth. All pups were examined for length and developmental staging such as whisker formation. Kidneys were harvested, weighed, and fixed in 4% paraformaldehyde before histological preparation.\nKidneys were prepared by sagittal cross-sectioning and hematoxylin and eosin staining. All kidneys were photographed under the same magnification (4×) and cystic burden was computed using Image J analysis software (NIH). The area of cysts within the total area of the kidney (pixels) was calculated as a final percentage of cystic burden in the kidney. Immunohistochemical analysis of active caspase-3 was completed as per manufacturer's protocol."}, "[5]": {"system": "adult animal", "experiment": "Tolerability in adult animal", "type": "in vivo", "description": "Since ADPKD has no proven therapeutic cure or treatment, Applicants believe it is encouraging as a preliminary step to observe triptolide-mediated growth arrest and attenuation of cyst progression. […] In summary, Applicants have established a novel pathway for triptolide mediated calcium release in a polycystin-2 dependent pathway that can reduce cystic burden in the kidneys of PKD mice. It is hopeful therefore that if fully developed, triptolide would be an ideal candidate for drug therapy as its history as an herbal therapy has already shown it to be well tolerated in humans."}, "[6]": {"system": "HeLa cells", "experiment": "HeLa cell viability by trypan blue dye exclusion", "type": "cell-based", "conditions": "10 μM (so in the source), 48 hours"}, "[7]": {"conditions": "0.07 mg/kg/day i.p. to pregnant mice, E10.5 until birth"}}, "data": [{"smiles": "CC(C)[C@]12O[C@H]1[C@@H]1O[C@]13[C@]1(O[C@H]1C[C@H]1C4=C(CC[C@@]13C)C(=O)OC4)[C@@H]2O", "note": "[triptolide, Triptolide]", "values": [{"measurement": "active caspase-3 (western blot)", "setting": "[1]; 100 nM time course", "result": "failed to implicate triptolide induced apoptosis"}, {"measurement": "p21 expression (western blot)", "setting": "[1]; 100 nM, 96 hour time course", "result": "upregulated"}, {"measurement": "cell growth", "setting": "[1]; 100 nM, over 96 hours", "result": "growth arrested"}, {"measurement": "cell death", "setting": "[2]", "result": "rapid cell death within 24 hours"}, {"measurement": "dose at which toxicity was most prominent (resorption of embryos, stillborns)", "setting": "[3]", "result": "≥ 0.1", "unit": "mg/kg/day"}, {"measurement": "Alive Pkd1^−/− (birth) (number)", "setting": "[4]; [7]", "result": 4}, {"measurement": "Alive Pkd1^−/− (birth) (percent)", "setting": "[4]; [7]", "result": "Approximately 20%"}, {"measurement": "Alive Pkd1^−/− (birth) (percent)", "setting": "[4]; 0.07 mg/kg/day i.p. to pregnant mice, E10.5 until birth, listed as Triptolide", "result": 22, "unit": "%"}, {"measurement": "diameter of cyst lumens on average", "setting": "[4]; Pkd1^−/− kidneys", "result": "smaller"}, {"measurement": "active caspase-3 immunoreactivity in kidney sections", "setting": "[4]; Pkd1^−/− kidneys, IHC", "result": "did not show any significant activation of the caspase pathway"}, {"measurement": "kidney morphology", "setting": "[4]; mouse, in vivo", "result": "normal morphology"}, {"measurement": "dose that did not adversely affect health", "setting": "[5]", "result": "greater than 0.15 mg/kg/day"}, {"measurement": "cell proliferation and cell death", "setting": "[6]", "result": "inhibited cell proliferation but did not induce cell death"}]}]}
